{
  "source": "paper PMC6271218",
  "about": "“Pharmacokinetics, Tissue Distribution and Excretion of Verticinone from F. hupehensis in Rats” (Molecules, 2014)",
  "type_in_all_cases": "in vivo, SD rats",
  "key": {"[1]": {"test": "Excretion study (urine, bile, feces) after oral dose", "settings": "for dose excreted: SD, rat, faeces, oral, read-out: recovery from feces; for dose excreted / cumulative excreted fraction in bile (% of administered dose) / cumulative excreted fraction in feces (% of administered dose) / unchanged verticinone excreted from urine and feces / cumulative excreted fraction in urine (% of administered dose): i.g. 2 mg/kg; for dose excreted as unchanged parent compound: 2 mg/kg oral dose; for cumulative excreted fraction in bile (% of administered dose): bile 24 h; for cumulative excreted fraction in feces (% of administered dose): feces 36 h; for cumulative excreted fraction in urine (% of administered dose): unchanged verticinone", "description": "Ten rats were housed separately in metabolic cages and received a single oral dose of 2 mg/kg verticinone. Urine was collected at 0, 4, 8, 12, and 24 h for female rats and at 0, 4, 8, 12, 24, 36 h for male rats. Feces were collected at 0, 12, 24, and 36 h for female rats and at 0, 8, 12, 24, 36 h for male rats. The volume of urine samples was measured before storage at −20 °C. Feces were weighted and homogenized in 5 volumes (v/w) of 50% methanol/50% water and stored at −20 °C until analysis. In addition, ten rats were anesthetized with ether and then the bile ducts were cannulated with polyethylene tube. The rats also received a single oral dose of 2 mg/kg verticinone. Bile was collected at 0, 2, 4, 6, 8, 12, and 24 h after dosing and stored at −20 °C until analysis. Verticinone was extracted from urine, feces and bile samples based on the method described for tissue samples.\n(§1) The quantification of verticinone was performed by a LC-MS method based on the previously reported method with slight modifications. The liquid chromatography system consisted of a model 2010 chromatograph (Shimadzu, Kyoto, Japan) equipped with a Shim-Pack VP-ODS C18 column (150 mm × 2.0 mm, 5 μm). A Shimadzu 2010 mass spectrometer (Q-array-Octapole-Quadrupole mass analyzer) equipped with an electrospray ionization interface was used for MS detection. The mobile phase consisted of (A) distilled water and (B) methanol, and the flow rate was 0.2 mL/min. Chromatography separation was achieved using a gradient elution program, as follows: 0.03→6.0 min, B% 15→85; 6.0→7.0 min, B% 85→85; 7.0→8.0 min, B% 85→15; 8.0–12.0 min, B% 15→15. The column and autosampler tray temperature were kept constant at 35 °C and 20 °C, respectively. For the determination of verticinone, the positive mode was selected, along with the conditions as follows.\n(§2) CDL voltage […], probe voltage 4.5 kV, CDL temperature 250 °C, block temperature 200 °C, gas flow 1.5 L/min. Hupehenine was used as the internal standard (IS). Both verticinone and IS were detected using selected ion monitoring (SIM) at m/z 430.25 for verticinone and m/z 416.30 for hupehenine (IS), with a dwell time of 200 ms. Blank plasma, tissue homogenate, urine, feces homogenate and bile were used to prepare the corresponding calibration curves to avoid different matrix effects."}, "[2]": {"test": "Plasma pharmacokinetics after i.v. administration", "settings": "for AUC(0-inf) / AUC(0-t) / MRT last: SD, rat, plasma, iv; for AUC(0-inf) / AUC(0-t) / MRT last / Vz/F: i.v. 0.4 mg/kg; for MRT last: read-out: MRT0–t", "description": "(§3) Pharmacokinetic studies of verticinone after intravenous (i.v.) and intragastrical (i.g.) administration to rats were designed to determine pharmacokinetic parameters and absolute bioavailability. For i.g administration, verticinone was suspended in 0.5% carboxymethyl cellulose sodium (CMC-Na) to final concentrations of 0.2, 0.4 and 0.8 mg/mL. Verticinone was dissolved in 20% ethanol/80% water to final concentration of 0.08 mg/mL for i.v. administration. For the i.v. group, five male and five female rats received a single dose of 0.4 mg/kg. Blood samples (0.25 mL) were obtained at 0, 4, 15, 30, 45, 60, 120, 240, 360, 480, 600 and 720 min after injection. For the single- i.g. group, fifteen male and fifteen female rats were divided into three groups, and each group received a single oral dose of 1, 2 and 4 mg/kg of verticinone, respectively. In addition, another five male and five female rats received multiple oral doses of 4 mg/kg/day, given as 2 mg/kg doses twice a day (one dose in the morning and the second dose 12 h later) for 7 days, then a single oral dose of 2 mg/kg on the eighth day. Blood samples (0.25 mL) were obtained at 0, 5, 15, 30, 45, 60, 90, 120, 240, 360, 480 and 720 min for male rats and at 0, 5, 10, 20, 30, 45, 60, 120, 240, 360, 480 and 720 min for female rats after oral administration (the eighth day for multiple-dose group). Blood samples were then centrifuged at 4000 rpm for 10 min, and the plasma was collected. All plasma samples were frozen and stored at −20 °C until analysis. Verticinone was isolated from plasma by liquid-liquid extraction according to our previously reported procedure.\nas §1, §2\n(§4) The pharmacokinetic parameters were calculated by the DAS 2.0 software (Chinese Pharmacological Association, Beijing, China) using a standard non-compartmental method. The Cmax and Tmax were determined from the observed data. The elimination rate constant (ke) was calculated by log-linear regression of verticinone concentrations during the terminal elimination phase and the half-life (t1/2) was calculated as 0.693/ke. The AUC0–t was calculated by the linear trapezoidal method. The AUC0–∞ was calculated as the sum of AUC0–t and the extrapolated part determined by Clast/ke. The total clearance (CL) was calculated as dose/AUC0–∞. The absolute bioavailability (F) was calculated by the following equation: F = [(AUCi.g./AUCi.v.) × (Dosei.v./Dosei.g.)] × 100%. The results were expressed as mean ± SD. Statistical analyses were performed using an unpaired Student’s t-test."}, "[3]": {"test": "Multiple-dose (successive i.g.) plasma pharmacokinetics", "settings": "for Cmax / AUC(0-inf) / AUC(0-t) / Tmax / MRT last / Vd/F / half-life: SD, rat, plasma, po; for MRT last: read-out: MRT0–t; for Vd/F: read-out: Vz/F; for half-life: read-out: t1/2z (converted)", "description": "as §3, §1, §2, §4"}, "[4]": {"settings": "successive i.g. 2 mg/kg, female rats"}, "[5]": {"settings": "successive i.g. 2 mg/kg, male rats"}},
  "note": "Where two headings read alike, the source gives them in different places.",
  "data": [
    {"smiles": "C[C@H]1CC[C@@H]2N(C1)C[C@H]1[C@@H]3C[C@H]4[C@@H](CC(=O)[C@H]5C[C@@H](O)CC[C@@]54C)[C@@H]3CC[C@@H]1[C@]2(C)O", "note": "[verticinone, Verticinone]", "values": [
      {"measurement": "dose excreted", "setting": "[1]; female rats", "value": "< 1", "unit": "%"},
      {"measurement": "dose excreted", "setting": "[1]; male rats", "value": "< 1", "unit": "%"},
      {"measurement": "dose excreted as unchanged parent compound", "setting": "[1]; female rats", "value": "less than 1%"},
      {"measurement": "cumulative excreted fraction in bile (% of administered dose)", "setting": "[1]; female rats", "value": "0.02% ± 0.01"},
      {"measurement": "cumulative excreted fraction in feces (% of administered dose)", "setting": "[1]; female rats", "value": "0.42% ± 0.29"},
      {"measurement": "unchanged verticinone excreted from urine and feces", "setting": "[1]; female rats", "value": 0.6, "unit": "%"},
      {"measurement": "cumulative excreted fraction in urine (% of administered dose)", "setting": "[1]; female rats, urine 24 h", "value": "0.23% ± 0.05"},
      {"measurement": "dose excreted as unchanged parent compound", "setting": "[1]; male rats", "value": "less than 4%"},
      {"measurement": "cumulative excreted fraction in bile (% of administered dose)", "setting": "[1]; male rats", "value": "0.31% ± 0.21"},
      {"measurement": "cumulative excreted fraction in feces (% of administered dose)", "setting": "[1]; male rats", "value": "0.92% ± 0.53"},
      {"measurement": "unchanged verticinone excreted from urine and feces", "setting": "[1]; male rats", "value": "about 3.4%"},
      {"measurement": "cumulative excreted fraction in urine (% of administered dose)", "setting": "[1]; male rats, urine 36 h", "value": "2.50% ± 0.98"},
      {"measurement": "AUC(0-inf)", "setting": "[2]; female rats", "value": "0.0989 ± 0.0358", "unit": "µg·h/mL"},
      {"measurement": "AUC(0-t)", "setting": "[2]; female rats", "value": "0.0656 ± 0.00703", "unit": "µg·h/mL"},
      {"measurement": "MRT last", "setting": "[2]; female rats", "value": "2.04 ± 0.34", "unit": "h"},
      {"measurement": "AUC(0-inf)", "setting": "[2]; male rats", "value": "0.168 ± 0.023", "unit": "µg·h/mL"},
      {"measurement": "AUC(0-t)", "setting": "[2]; male rats", "value": "0.16 ± 0.0202", "unit": "µg·h/mL"},
      {"measurement": "MRT last", "setting": "[2]; male rats", "value": "2.37 ± 0.14", "unit": "h"},
      {"measurement": "Vz/F", "setting": "[2]; female rats", "value": "82.5 ± 70.3", "unit": "L/kg"},
      {"measurement": "Vz/F", "setting": "[2]; male rats", "value": "10.9 ± 1.56", "unit": "L/kg"},
      {"measurement": "Exposure, fold higher in male rats than in female rats", "setting": "[2]; i.v. dose 0.4 mg/kg", "value": 2.4, "unit": "fold"},
      {"measurement": "Cmax", "setting": "[3]; successive i.g. 2 mg/kg (twice a day for 7 days, then single dose on eighth day), female rats", "value": "0.0199 ± 0.014", "unit": "µg/mL"},
      {"measurement": "AUC(0-inf)", "setting": "[3]; [4]", "value": "0.0434 ± 0.012", "unit": "µg·h/mL"},
      {"measurement": "AUC(0-t)", "setting": "[3]; [4]", "value": "0.0361 ± 0.0152", "unit": "µg·h/mL"},
      {"measurement": "Tmax", "setting": "[3]; [4]", "value": "0.38 ± 0.22", "unit": "h"},
      {"measurement": "MRT last", "setting": "[3]; [4]", "value": "2.24 ± 0.28", "unit": "h"},
      {"measurement": "Vd/F", "setting": "[3]; [4]", "value": "485 ± 499", "unit": "L/kg"},
      {"measurement": "half-life", "setting": "[3]; [4]", "value": "5.94 ± 4.84", "unit": "h"},
      {"measurement": "AUC(0-inf)", "setting": "[3]; [5]", "value": "0.455 ± 0.125", "unit": "µg·h/mL"},
      {"measurement": "AUC(0-t)", "setting": "[3]; [5]", "value": "0.439 ± 0.126", "unit": "µg·h/mL"},
      {"measurement": "Cmax", "setting": "[3]; [5]", "value": "0.119 ± 0.0268", "unit": "µg/mL"},
      {"measurement": "Tmax", "setting": "[3]; [5]", "value": "0.8 ± 0.21", "unit": "h"},
      {"measurement": "MRT last", "setting": "[3]; [5]", "value": "2.98 ± 0.3", "unit": "h"},
      {"measurement": "Vd/F", "setting": "[3]; [5]", "value": "13.8 ± 4.07", "unit": "L/kg"},
      {"measurement": "half-life", "setting": "[3]; [5]", "value": "2.08 ± 0.51", "unit": "h"},
      {"measurement": "AUC, fold higher after successive i.g. than single i.g.", "setting": "[3]; female rats, 2 mg/kg", "value": "approximately 2 fold"},
      {"measurement": "CL, fold lower after successive i.g. than single i.g.", "setting": "[3]; female rats, 2 mg/kg", "value": 2, "unit": "fold"},
      {"measurement": "Cmax, fold higher after successive i.g. than single i.g.", "setting": "[3]; female rats, 2 mg/kg", "value": "approximately 2 fold"}
    ]}
  ]
}
